We go through four compounds from patent US20080015198A1, “Substituted pyrazoline compounds, their preparation and use as medicaments” (LABORATORIOS DEL DR.ESTEVE S.A., priority 2004, published 2008).

In one data set the target is T1, CB2-Receptor (Homo sapiens, UniProt P34972).
T1 construct: purchased Receptor Biology, Inc
In words: In-vitro determination of affinity to CB2-receptor, radioligand [3H]-CP55940. Format: binding. How it is done:
Brockie et al., “Agonist-inverse agonist characterization at CB1 and CB2 cannabinoid receptors of L-759633, L759656 and AM630”, British Journal of Pharmacology, 126, 665-672, (1999), whereby the transfected human CB1 and CB2 receptors of Receptor Biology, Inc. are used. The radioligand used for both receptors is [^3H]-CP55940.
The affinity of the inventive substituted pyrazoline compounds to CB1/CB2 receptors was determined as described above.

For data set [1], the system named is cannabinoid receptors. In words: Mouse tetrad model, agonistic effect. The conditions noted are these: 5 mg/kg i.v.; for Agonistic effect B: Hypothermia: unit assumed. Format: in vivo, mice. The text has this:
(§1) Substances with affinity for cannabinoid receptors are known to produce a wide range of pharmacological effects. It is also known that intravenous administration of a substance with affinity for cannabinoid receptors in mice produces analgesia, hypothermia, sedation and catalepsy. Individually, none of these effects can be considered as proof that a tested substance has affinity for cannabinoid-receptors, since all of these effects are common for various classes of centrally active agents. However, substances, which show all of these effects, i.e. substances that are active in this so-called tetrad model are considered to have affinity for the cannabinoid receptors. It has further been shown that cannabinoid receptor antagonists are higly effective in blocking the effects of a cannabinoid agonist in the mouse tetrad model.
(§2) The tetrad model is described, for example, in the publication of A. C. Howlett et al, International Union of Pharmacology XXVII. Classification of Cannabinoid Receptors, Pharmacol Rev 54, 161-202, 2002 and David R. Compton et al., “In-vivo Characterization of a Specific Cannabinoid Receptor Antagonist (SR141716A): Inhibition of Tetrahydrocannbinol-induced Responses and Apparent Agonist Activity”, J. Pharmacol. Exp. Ther. 277 , 2, 586-594, 1996. The corresponding parts of the description are hereby incorporated by reference.
(§3) Male NMRI mice with a weight of 20-30 g (Harlan, Barcelona, Spain) are used in all of the following experiments.
(§4) Before testing in the behavioral procedures given below, mice are acclimatized to the experimental setting. Pre-Treatment control values are determined for analgesia hot plate latency (in seconds), rectal temperature, sedation and catalepsy.
In order to determine the agonistic activty of the substance to be tested, the mice are injected intravenously with the substance to be tested or the vehicle alone. 15 minutes after injection, latency in hot plate analgesia is measured. Rectal temperature, sedation and catalepsy are measured 20 minutes after injection.
(§5) The hot plate analgesia is determined according to the method described in Woolfe D. et al. “The evaluation of analgesic action of pethidine hydrochloride (Demerol)”, J. Pharmacol. Exp. Ther. 80, 300-307, 1944.
(§6) The mice are placed on a hot plate (Harvard Analgesimeter) at 55±0.5° C. until they show a painful sensation by licking their paws or jumping and the time for these sensations to occur is recorded. This reading is considered the basal value (B). The maximum time limit the mice are allowed to remain on the hot plate in absence of any painful response is 40 seconds in order to prevent skin damage. This period is called the cut-off time (PC).
(§7) Fifteen minutes after the administration of the substance to be tested, the mice are again placed on the hot plate and the afore described procedure is repeated. This period is called the post-treatment reading (PT).
(§8) The degree of analgesia is calculated from the formula:
(§9) % MPE of Analgesia=(PT−B)/(PC−B)×100
(§10) Sedation and ataxia is determined according to the method described in Desmet L. K. C. et al. “Anticonvulsive properties of Cinarizine and Flunarizine in Rats and Mice”, Arzneim. -Forsch. (Frug Res) 25, 9, 1975.
(§11) The percentage of sedation is determined according to the formula:
(§12) % of sedation=arithmetic mean/3×100
(§13) Hypothermia is determined according to the method described in David R. Compton et. al. “In-vivo Characterization of a Specific Cannabinoid Receptor Antagonist (SR141716A) Inhibition of Tetrahydrocannbinol-induced Responses and Apparent Agonist Activity”, J. Pharmacol Exp Ther. 277, 2, 586-594, 1996.

The test system of data set [2] is cannabinoid receptors. In words: Mouse tetrad model, antagonistic effect against Win 55212-2. Format: in vivo, mice. The note with it: 5 mg/kg i.v. prior to Win 55212-2 in a dose of 1.25 mg/kg i.v.; for Antagonistic effect A: Hot-Plate test / Antagonistic effect B: Hypothermia: unit assumed.
Description: as §1, §2, §3, §4
In order to determine the antagonistic activity the identical procedure is used as for the determination of the agonistic effects, but with the difference that the substance to be evaluated for its antagonistic activity is injectected 5 minutes before the intravenous injection of 1.25 mg/kg Win-55,212 a known cannabinoid-receptor agonist.
as §5, §6, §7, §8, §9, §10, §11, §12, §13
A general note: Hot-plate and tail-flick tests time the reaction to a heat stimulus.

Data set [3] in a line: In-vivo testing for antiobesic activity. The conditions noted are these: rats.
A short description of data set [4]: In-vivo testing for antidepressant activity, water despair test. How it is done:
The in-vivo testing for antidepressant activity of the inventive pyrazoline compounds in the water despair test was carried out as described above.

T1 sequence (P34972 whole entry): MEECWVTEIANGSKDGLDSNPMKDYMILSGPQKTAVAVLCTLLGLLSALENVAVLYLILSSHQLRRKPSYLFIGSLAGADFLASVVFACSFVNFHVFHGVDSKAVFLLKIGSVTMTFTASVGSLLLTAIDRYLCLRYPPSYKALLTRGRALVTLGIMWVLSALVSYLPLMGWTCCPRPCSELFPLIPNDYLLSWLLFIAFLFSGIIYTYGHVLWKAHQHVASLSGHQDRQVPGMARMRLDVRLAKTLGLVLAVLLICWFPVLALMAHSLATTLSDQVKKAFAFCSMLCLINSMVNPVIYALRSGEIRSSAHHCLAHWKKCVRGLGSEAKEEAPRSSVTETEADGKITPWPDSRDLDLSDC

The term melting point denotes the temperature, or range, at which the solid turns liquid. For `CN1CCN(NC(=O)C2=NN(c3ccc(Cl)cc3Cl)C(c3ccc(Cl)cc3)C2)CC1.Cl` (stereo not shown), the melting point is 150 to 155 °C.

On to `O=C(Nn1cnnc1)C1=NN(c2ccc(Cl)cc2Cl)C(c2ccc(Cl)cc2)C1` (stereo not shown), for which the melting point lay within 134 to 138 °C.

Usually Ki stands for a dissociation constant, usually derived from enzyme kinetics or from competition with a known ligand. Low readings indicate tighter binding, high ones weaker binding. Regarding `O=C(C1=NN(c2ccc(Cl)cc2Cl)C(c2ccc(Cl)cc2)C1)N1CCCCC1` (stereo not shown) [Example 5, [5-(4-Chloro-phenyl)-1-(2,4-dichloro-phenyl)-4,5-dihydro-1H-pyrazol-3-yl]-piperidin-1-yl-methanone], the melting point lay in the range of 105 to 110 °C. This compound came in with a Ki on CB2-Receptor of approximately 1000 nM. In addition, in the data set on cannabinoid receptors [1], the Agonistic effect A: Hot-Plate test came to 0%, the Agonistic effect C: Catalepsy stood at 0%, the “Agonistic effect D: Sedation” value is reported as 0 and the Agonistic effect B: Hypothermia came to 50%. In the data set on cannabinoid receptors [2], this compound showed an Antagonistic effect C: Catalepsy of 20%, an Antagonistic effect D: Sedation of 20%, an Antagonistic effect A: Hot-Plate test of 50% and an Antagonistic effect B: Hypothermia of 40%.

For `O=C(NN1CCCCC1)C1=NN(c2ccc(Cl)cc2Cl)C(c2ccc(Cl)cc2)C1` (stereo not shown) [Example 1, N-piperidinyl-5-(4-chlorophenyl)-1-(2,4-dichlorophenyl)-4,5-dihydro-1H-pyrazole-3-carboxamide], in the data set on cannabinoid receptors [1], the Agonistic effect A: Hot-Plate test was 0%, the Agonistic effect C: Catalepsy was found to be 0%, the “Agonistic effect D: Sedation” value is reported as 0 and the Agonistic effect B: Hypothermia was 0%. In the data set on cannabinoid receptors [2], the Antagonistic effect C: Catalepsy is 100%, the Antagonistic effect D: Sedation worked out at 100%, the Antagonistic effect A: Hot-Plate test was 74% and the Antagonistic effect B: Hypothermia is 100%. Further, in data set [3] (10 mg/kg intraperitoneally daily over 14 days, FIG. 1), the body weight result was “lowered”. Also, the food intake entry in data set [3] (10 mg/kg intraperitoneally daily over 14 days, FIG. 2) is given as “reduction of food intake”. Also, the “body weight effect after the treatment is ended” value in data set [3] (after end of 14 days of 10 mg/kg i.p. daily, FIG. 1) is “also observed after the treatment is ended”. Besides, in data set [4], the immobility time entry is given as “positive effects” and the struggling time entry is listed as “positive effects”.
